For data set [1] the following is noted: free base (non-protonated) nicotine; cited from earlier work.

Like-named read-outs stand apart in the source and are kept apart here.

Take `CN1CCCC1c1cccnc1` (stereo not drawn) [nicotine, 3-(1-methyl-2-pyrrolidinyl) pyridine]: the “partition coefficient (oil phase : aqueous phase)” value by setting is: (Samples 1-4: MCT oil vs DI water, basified DI water pH 7.4, artificial saliva pH 6.8, acidified DI water pH 2) “greater than 1”; (Samples 5-8: MCT, triacetin or triolein oil vs 1M acetic acid pH adjuster, pH 2) “less than 1”. For the same compound, the pKa value result in data set [1] was “about 8”.
